In patent publication US20240408099A1, “COMBINATION […] OF KRAS G12D INHIBITORS WITH Pan ErbB FAMILY INHIBITORS” (MIRATI THERAPEUTICS, INC., priority 2021, published 2024):

Assays:
[1] = test system: GP2D cells; experiment: GP2D TGI MDS 200108-807 colorectal cancer xenograft, tumor volumes; assay type: in vivo, nude/nude mice; conditions: for Average Tumor Volumes: 30 mg/kg BID Daily
Experimental: Immunocompromised nude/nude mice are inoculated in the right hind flank with cells harboring a KRas G12D mutation. When tumor volumes reach between 200-400 mm^3 in size, the mice are divided into four to five groups of 5 mice each. The first group is administered vehicle only. […] The fourth or last groups are administered the single agent dose of the KRas G12D inhibitor using the twice daily schedule and/or the 2 sequential days followed by 5 days off schedule in combination with the single agent dose of one of the EGFR inhibitors. […] Tumor volumes are measured using a caliper every two-three days and tumor volumes are calculated by the formula: […].
20 to 30 nude/nude mice per study were inoculated in the right hind limb with 5×10^6 LS180 cells, AsPC-1 cells, GP2D cells, Panc 02.03 cells, SW1990 cells, or SNU-1033 cells.
Experimental Procedures. 20 nude/nude mice were inoculated with GP2D cells in the right hind flank. When the tumors reached ˜300 mm^3 four treatment groups were established with five mice per group.

[2] = test system: HPAC cells; experiment: HPAC TGI 73 pancreatic cancer xenograft, tumor volumes; assay type: in vivo, nude/nude mice; conditions: for Average Tumor Volumes: 30 mg/kg IP BID daily
Experimental: Immunocompromised nude/nude mice are inoculated in the right hind flank with cells harboring a KRas G12D mutation. When tumor volumes reach between 200-400 mm^3 in size, the mice are divided into four to five groups of 5 mice each. The first group is administered vehicle only. […] The fourth or last groups are administered the single agent dose of the KRas G12D inhibitor using the twice daily schedule and/or the 2 sequential days followed by 5 days off schedule in combination with the single agent dose of one of the EGFR inhibitors. The treatment period varies from cell line to cell line but typically is between 15-40 days. Tumor volumes are measured using a caliper every two-three days and tumor volumes are calculated by the formula: […].
Experimental Procedures. 20 nude/nude mice were inoculated with HPAC cells in the right hind flank. When the tumors reached ˜200 mm^3 four treatment groups were established with five mice per group.

In the case of `C#Cc1c(F)ccc2cc(O)cc(-c3ncc4c(N5C[C@H]6CC[C@@H](C5)N6)nc(OC[C@@]56CCCN5C[C@H](F)C6)nc4c3F)c12` [MRTX1133, 4-(4-((1R,5S)-3,8-diazabicyclo[3.2.1]octan-3-yl)-8-fluoro-2-(((2R,7aS)-2-fluorohexahydro-1H-pyrrolizin-7a-yl)methoxy)pyrido[4,3-d]pyrimidin-7-yl)-5-ethynyl-6-fluoronaphthalen-2-ol], the “Average Tumor Volumes” value ([1]; Study Day 2) is reported as 341.3 mm^3, the “Average Tumor Volumes” value ([1]; Study Day 6) is reported as 282.98 mm^3 and the “Average Tumor Volumes” value ([1]; Study Day 9) is reported as 237.18 mm^3. The “Average Tumor Volumes” value ([1]; Study Day 13) was 244.1 mm^3, the “Average Tumor Volumes” value ([1]; Study Day 16) was 198.725 mm^3 and the “Average Tumor Volumes” value ([1]; Study Day 20) was 288.05 mm^3. For the same compound, the “Average Tumor Volumes” value ([1]; Study Day 23) was 339 mm^3, the “Average Tumor Volumes” value ([1]; Study Day 27) was 385.85 mm^3 and the “Average Tumor Volumes” value ([1]; Study Day 30) was 394.05 mm^3. The tumor growth inhibition ([1]; 30 mg/kg BID daily, single agent, Day 30) was 96%, the “Average Tumor Volumes” value ([2]; Study Day 0) was 196.76 mm^3 and the “Average Tumor Volumes” value ([2]; Study Day 3) was 149.646 mm^3. The “Average Tumor Volumes” value ([2]; Study Day 7) was 107.504 mm^3, the “Average Tumor Volumes” value ([2]; Study Day 10) was 99.742 mm^3 and the “Average Tumor Volumes” value ([2]; Study Day 14) was 91.818 mm^3. The “Average Tumor Volumes” value ([2]; Study Day 17) was 93.348 mm^3, the “Average Tumor Volumes” value ([2]; Study Day 21) was 74.006 mm^3 and the tumor regression ([2]; 30 mg/kg daily, single agent, Day 21) was −62%.
